Test results taken from US4198405A, “Prostaglandine derivatives” (priority 1978, dated 1980).
“Also recorded” adds a separate entry of the source.

What was measured:
estrogen receptor = test: Competitive receptor assay with 3H-estradiol in rabbit uterus; format: binding; conditions: for binding to the estrogen receptor: in accordance with the method of Example 1
Description: Binding function of estradiol and the PGFE to each uterus of rabbit were measured by the competitive receptor assay. Estradiol labelled by tritium (^3 H) was incubated with uterus of rabbit to bind it and then, estradiol or the PGFE was added to the system to measure the amount of free ^3 H-estradiol which was replaced by the added estradiol or the PGFE.

rats (uterus) = test: Hysterotrimus and cardiac activity by intravenous injection to rats
ICR-JCL pregnant mice [1] = test: Side-effect test: tachycardia, respirogram and electrocardiogram by biophysiograph; format: in vivo; conditions: for tachycardia, respirogram and electrocardiogram compared with control: intravenous; for abnormal condition in tachycardia, respirogram and electrocardiogram: mice in pregnancy, before and after administration
Description: The tachycardia, respirogram and electrocardiogram of mice in pregnancy before and after the administration of PGF2 α, PGFE, PGFE-4AC and PGFE-3AC are tested by a biophysiograph 180-4(4ch) (manufactured by San-ei Sokuki K.K.).
(§1) Acute toxicity (LD50) and abnormal tachycardia, respirogram and electrocardiogram by a biophysiograph were tested.
Electrocardiogram was measured by a biophysiograph 180-4 (4 ch) (manufactured by San-ei Sokuki K.K.) for ICR-JCL pregnant mice (6th day) at 3 minutes after the administration of each sample.
In the test, 0.2 ml of 50% ethanol-saline solution was intravenously injected to the mice at a dose of 30γ per mouse. As the reference, the PGF2 α was also used as the sample (a dose of 15γ per mouse).
The results of the measurements are shown in FIGS. 2 to 5 wherein mV is given on ordinate and time (second) is given on abscissas and the chart speed was 250 mm/sec.

ICR-JCL pregnant mice [2] = test: Abortion test, intravenous injection once a day during 4 days (Table 1); format: in vivo; conditions: i.v. once a day
Description: The abortion was studied with ICR-JCL pregnant mice by the continuous administration of the drug during 4 days and the side-effect in the administration was also examined. After 0.2 ml of 50% ethanol-saline solution containing the PGFE at dose 10γ and 30γ/mouse or PGF2 α at dose 15γ/mouse(equimole of PGFE 30γ) was intravenously injected to the mice once a day during 4 days, their breedings were continued to confirm the abortion of the group administrated with the drugs until the partus of the control group administrated with only ethanol saline solution.

[3] = system: ICR-JCL mice of the sixth day of pregnancy; test: Test of abortion by subcutaneous injection, 4 days (Table 2); format: in vivo; conditions: s.c. once a day
Description: (§2) The continuous administrations were applied to ICR-JCL mice of the sixth day of pregnancy (5 mice as one group) to examine the efficiency of the abortion obtained by the drugs of this invention in comparison with that of PGF2 α. After 0.2 ml of 5% ethanol-saline solution containing the […], the […] or PGF2 α was given to the mice once a day during 4 days by intravenous injection and subcutaneous injection at some dose, their breeding were continued to confirm the abortion of the group administrated with the drugs until the partus of the control group administrated with only ethanol saline solution.

[4] = system: ICR-JCL mice of the sixth day of pregnancy; test: Test of abortion by intravenous injection, 4 days (Table 3); format: in vivo; conditions: i.v. once a day
Description: as §2

ICR-JCL pregnant mice [5] = test: Efficiency of abortion, summary in words of the tests in pregnant mice; format: in vivo; conditions: for abortion (in words): continuous administration during 4 days; for abortion effect in comparison with PGF2 α: suitable administrations and doses; for efficiency of abortion compared with PGF2 α: intravenous and subcutaneous, 4 days
Description: The efficiency of abortion of PGFE,PGFE-4AC and PGFE-3AC are tested as pharmacological effects in suitable administrations and doses by using ICR-JCL pregnant mice.
The continuous administrations were applied to ICR-JCL mice of the sixth day of pregnancy (5 mice as one group) to examine the efficiency of the abortion obtained by the drugs of this invention in comparison with that of PGF2 α. After 0.2 ml of 5% ethanol-saline solution containing the PGFE-3AC, the PGFE-4AC or PGF2 α was given to the mice once a day during 4 days by intravenous injection and subcutaneous injection at some dose, their breeding were continued to confirm the abortion of the group administrated with the drugs until the partus of the control group administrated with only ethanol saline solution.

ICR-JCL female mice = test: Acute toxicity (LD50), intravenous injection; format: in vivo; conditions: for survival of mice (acute toxicity) / abnormality observed: 400 mg/kg; for survival of mice (acute toxicity): 10 mice; for LD50 (in words): 7 days, Litchfield-Wilcoxon graph method
Description: Acute toxicities (LD50) of PGFE,PGFE-4AC and PGFE-3A are measured by intravenous injections at a dose of 400 mg/kg to ten of ICR-JCL female mice (4 weeks age).
as §1
In the measurement of LD50, 10ICR-JCL female mice (4 week age) were used as one group. 0.2 ml of 50% ethanol-saline solution containing the drug of this invention was intravenously injected to the mice at several doses during 7 days to obtain their value of LD50 by Litchfield-Wilcoxon graph method.

[6] = in accordance with the method of Example 1
[7] = 30γ/mouse, 3 minutes after administration

| Compound | binding to the estrogen receptor (estrogen receptor) | hysterotrimus (rats (uterus); [6]) | abnormal condition in tachycardia, respirogram and electrocardiogram (ICR-JCL pregnant mice [1]) | Efficiency of abortion ([3]; 15 .tau./mouse) | Result of parturition (5 mice in group) ([3]; 15 .tau./mouse) | Efficiency of abortion ([3]; 30 .tau./mouse) | Result of parturition (5 mice in group) ([3]; 30 .tau./mouse) | Efficiency of abortion ([4]; 2.5 .tau./mouse) | Result of parturition (5 mice in group) ([4]; 2.5 .tau./mouse) | Efficiency of abortion ([4]; 5.0 .tau./mouse) | Result of parturition (5 mice in group) ([4]; 5.0 .tau./mouse) | survival of mice (acute toxicity) (ICR-JCL female mice) | abortion (in words) (ICR-JCL pregnant mice [5]; same dose as PGF2 α or less) | abortion effect in comparison with PGF2 α (ICR-JCL pregnant mice [5]) | abnormality observed (ICR-JCL female mice) | LD50 (in words) (ICR-JCL female mice) | tachycardia, respirogram and electrocardiogram compared with control (ICR-JCL pregnant mice [1]; [7]) | efficiency of abortion compared with PGF2 α (ICR-JCL pregnant mice [5]) | further results |
| --- | --- | --- | --- | --- | --- | --- | --- | --- | --- | --- | --- | --- | --- | --- | --- | --- | --- | --- | --- |
| CCCCC[C@H](O)/C=C/[C@@H]1[C@@H](C/C=C\CCCC(=O)OC2CC[C@H]3[C@@H]4CCc5cc(O)ccc5[C@H]4CC[C@]23C)[C@@H](O)C[C@H]1O (stereo partly shown) [Example 2] | bonded to the estrogen receptor | cause hysterotrimus |  |  |  |  |  |  |  |  |  |  |  |  |  |  |  |  |  |
| CCCCC[C@H](O)/C=C/[C@H]1[C@H](O)CC(=O)[C@@H]1C/C=C\CCCC(=O)OCC(=O)OCC(=O)[C@H]1CC[C@H]2[C@@H]3CCC4=CC(=O)CC[C@]4(C)[C@H]3CC[C@]12C [PGE2 P] | bonded to the estrogen receptor | cause hysterotrimus |  |  |  |  |  |  |  |  |  |  |  |  |  |  |  |  |  |
| CCCCC[C@H](O)/C=C/[C@@H]1[C@@H](C/C=C\CCCC(=O)O)[C@@H](O)C[C@H]1O [PGF2 α, 9α,11α,15α-trihydroxy-5(cis)-13(trans)-prostadienoic acid, reference compound] |  |  | abnormal conditions are clearly observed | 0% | 5 | 20% | 4 | 0% | 5 | 0% | 5 |  |  |  |  |  |  |  | tachycardia, respirogram and electrocardiogram compared with control (ICR-JCL pregnant mice [1]; 15γ/mouse, 3 minutes after administration (FIG. 3)): abnormally different from those of the control; Effect of abortion (ICR-JCL pregnant mice [2]; 15 γ/mouse): 0%; Result of parturition (5 mice in group) (ICR-JCL pregnant mice [2]; 15 γ/mouse): 5; Efficiency of abortion ([4]; 15.0 .tau./mouse): 20%; Result of parturition (5 mice in group) ([4]; 15.0 .tau./mouse): 4; abortion (in words) (ICR-JCL pregnant mice [5]; 15α (4.24×10^-8 moles)/mouse): The abortion is incomplete; cardiac activity (rats (uterus); 5γ, intravenous, rats): cardiac stop was caused; hysterotrimus (rats (uterus); 5γ, intravenous, rats): gaved of the hysterotrimus |
| CCCCC[C@H](O)/C=C/[C@@H]1[C@@H](C/C=C\CCCC(=O)OCC(=O)O[C@H]2CC[C@H]3[C@@H]4CCc5cc(O)ccc5[C@H]4CC[C@]23C)[C@@H](O)C[C@H]1O [PGFE, estra-1,3,5(10)-triene-3-hydroxy-17-oxycarbonylmethyl-9α,11α,15α-trihydroxy-5(cis)-13(trans)prostadienoate] |  |  | any abnormal condition is not observed |  |  |  |  |  |  |  |  | All of mice (10) are survived | satisfied results are obtained | greatly superior effect |  |  |  |  | binding function to estrogen receptor (estrogen receptor; uterus of rabbit, displacement of 3H-estradiol, FIG. 1): has the binding function to estrogen receptor as the same with the estradiol itself; Effect of abortion (ICR-JCL pregnant mice [2]; 10 γ/mouse): 100%; Result of parturition (5 mice in group) (ICR-JCL pregnant mice [2]; 10 γ/mouse): 0; Effect of abortion (ICR-JCL pregnant mice [2]; 30 γ/mouse): 100%; Result of parturition (5 mice in group) (ICR-JCL pregnant mice [2]; 30 γ/mouse): 0; hysterotrimus (rats (uterus); 5 to 50γ (printed "5 L to 50γ"), intravenous, rats): gaved of the hysterotrimus; cardiac activity (rats (uterus); 50γ, intravenous, rats): the cardiac activity was in the normal condition; beginning of hysterotrimus in comparison with PGF2 α (rats (uterus); intravenous, rats): some delay in the beginning of hystrotrimus; side-effect (rats (uterus); up to 50γ, intravenous, rats): no side-effect was found |
| CCCCC[C@@H](/C=C/[C@@H]1[C@@H](C/C=C\CCCC(=O)OCC(=O)O[C@H]2CC[C@H]3[C@@H]4CCc5cc(O)ccc5[C@H]4CC[C@]23C)[C@@H](OC(C)=O)C[C@H]1OC(C)=O)OC(C)=O [PGFE-3AC, estra-1,3,5(10)-triene-3-hydroxy-17-oxycarbonylmethyl-9α,11α,15α-triacetoxy-5(cis)-13(trans)-prostadienoate] |  |  | any abnormal condition is not observed | 100% | 0 |  |  | 60% | 2 | 100% | 0 | all of the mice were survived | satisfied results are obtained | greatly superior effect | any abnormality was not observed | too high to be impossible to measure directly | substantially the same with those of the control | remarkably superior | survival of mice (acute toxicity) (ICR-JCL female mice; listed as PGFE-3A): All of mice (10) are survived; Efficiency of abortion ([4]; 1.0 .tau./mouse): 20%; Result of parturition (5 mice in group) ([4]; 1.0 .tau./mouse): 4 |
| CCCCC[C@@H](/C=C/[C@@H]1[C@@H](C/C=C\CCCC(=O)OCC(=O)O[C@H]2CC[C@H]3[C@@H]4CCc5cc(OC(C)=O)ccc5[C@H]4CC[C@]23C)[C@@H](OC(C)=O)C[C@H]1OC(C)=O)OC(C)=O [PGFE-4AC, estra-1,3,5(10)-triene-3-acetoxy-17-oxycarbonylmethyl-9α,11α,15α-triacetoxy-5(cis)-13(trans)prostadienoate] |  |  | any abnormal condition is not observed | 100% | 0 | 100% | 0 | 40% | 3 | 100% | 0 | all of the mice were survived; also recorded: All of mice (10) are survived | satisfied results are obtained | greatly superior effect | any abnormality was not observed | too high to be impossible to measure directly | substantially the same with those of the control | remarkably superior |  |
